Assay results reported in patent US20220009874A1, “CATALYTIC SYNTHESIS OF ANTI-UV AND ANTIOXIDANT CONJUGATED 8-8 DIMERS IN A GREEN SOLVENT” (INSTITUT DES SCIENCES ET INDUSTRIES DU VIVANT ET DE …, priority 2018, published 2022).

Test: UV absorbance of the dimers in ethanol compared with sinapoyl malate
Assay type: physicochemical
Conditions: 10 μmol·L^−1 in ethanol; for absorption band: FIG. 1
From the text: a. […] A change of the R3 radical can also affect these properties (FIG. 11).

absorption band | Structure (SMILES) | anti-UV properties (UV absorbance) compared with sinapoyl malate (FIGS. 1 to 16)
200-370 nm | COc1cc(/C=C/C(=O)OC(CC(=O)O)C(=O)O)cc(OC)c1O (stereo not drawn) [sinapoyl malate, reference compound] | –
200-400 nm | CCOC(=O)C(=Cc1cc(OC)c(O)c(OC)c1)C(=Cc1cc(OC)c(O)c(OC)c1)C(=O)OCC [ethyl β-β disinapate] | higher anti-UV properties than sinapoyl malate
